Experimental data reported in the NIST ThermoML archive (doi:10.1007/s10765-009-0602-6).

Assay: molar heat capacity at constant volume; xn = mol fraction of the nth substance listed
Conditions: x1 = 0.2607

N [ammonia] + O
Conditions	molar heat capacity at constant volume [J/K/mol]
581.09 K, Fluid (supercritical or subcritical phases), Mass density=476.25 kg/m3, isochoric heat capacity	67.71
581.18 K, Fluid (supercritical or subcritical phases), Mass density=476.25 kg/m3, isochoric heat capacity	67.34
581.36 K, Fluid (supercritical or subcritical phases), Mass density=476.25 kg/m3, isochoric heat capacity	66.28
581.54 K, Fluid (supercritical or subcritical phases), Mass density=476.25 kg/m3, isochoric heat capacity	66.75
581.62 K, Fluid (supercritical or subcritical phases), Mass density=476.25 kg/m3, isochoric heat capacity	66.08
584.62 K, Fluid (supercritical or subcritical phases), Mass density=476.25 kg/m3, isochoric heat capacity	65.81
584.71 K, Fluid (supercritical or subcritical phases), Mass density=476.25 kg/m3, isochoric heat capacity	65.01
584.8 K, Fluid (supercritical or subcritical phases), Mass density=476.25 kg/m3, isochoric heat capacity	64.64
584.88 K, Fluid (supercritical or subcritical phases), Mass density=476.25 kg/m3, isochoric heat capacity	65.32
584.95 K, Fluid (supercritical or subcritical phases), Mass density=456.58 kg/m3, isochoric heat capacity	82.04
584.95 K, Liquid, Isochoric heat capacity	82.04
584.97 K, Fluid (supercritical or subcritical phases), Mass density=476.25 kg/m3, isochoric heat capacity	65.26
584.98 K, Fluid (supercritical or subcritical phases), Mass density=456.58 kg/m3, isochoric heat capacity	80.98
585.15 K, Fluid (supercritical or subcritical phases), Mass density=476.25 kg/m3, isochoric heat capacity	64.62
585.16 K, Fluid (supercritical or subcritical phases), Mass density=456.58 kg/m3, isochoric heat capacity	80.57
585.31 K, Fluid (supercritical or subcritical phases), Mass density=120.03 kg/m3, isochoric heat capacity	115.43
585.31 K, Liquid, Isochoric heat capacity	115.43
585.34 K, Fluid (supercritical or subcritical phases), Mass density=120.03 kg/m3, isochoric heat capacity	110.25
585.4 K, Fluid (supercritical or subcritical phases), Mass density=120.03 kg/m3, isochoric heat capacity	96.96
585.42 K, Fluid (supercritical or subcritical phases), Mass density=456.58 kg/m3, isochoric heat capacity	79.9
585.48 K, Fluid (supercritical or subcritical phases), Mass density=120.03 kg/m3, isochoric heat capacity	94.87
585.5 K, Fluid (supercritical or subcritical phases), Mass density=456.58 kg/m3, isochoric heat capacity	80.27
585.62 K, Fluid (supercritical or subcritical phases), Mass density=120.03 kg/m3, isochoric heat capacity	76.93
585.68 K, Fluid (supercritical or subcritical phases), Mass density=456.58 kg/m3, isochoric heat capacity	78.28
585.94 K, Fluid (supercritical or subcritical phases), Mass density=120.03 kg/m3, isochoric heat capacity	64.29
586.02 K, Fluid (supercritical or subcritical phases), Mass density=120.03 kg/m3, isochoric heat capacity	59.53
586.11 K, Fluid (supercritical or subcritical phases), Mass density=120.03 kg/m3, isochoric heat capacity	58.12
586.2 K, Fluid (supercritical or subcritical phases), Mass density=120.03 kg/m3, isochoric heat capacity	53.99
586.28 K, Fluid (supercritical or subcritical phases), Mass density=120.03 kg/m3, isochoric heat capacity	54.52
586.37 K, Fluid (supercritical or subcritical phases), Mass density=120.03 kg/m3, isochoric heat capacity	51.14
587.06 K, Fluid (supercritical or subcritical phases), Mass density=456.58 kg/m3, isochoric heat capacity	75.4
587.24 K, Fluid (supercritical or subcritical phases), Mass density=456.58 kg/m3, isochoric heat capacity	75.97
587.41 K, Fluid (supercritical or subcritical phases), Mass density=456.58 kg/m3, isochoric heat capacity	75.31
587.5 K, Fluid (supercritical or subcritical phases), Mass density=456.58 kg/m3, isochoric heat capacity	74.46
587.58 K, Fluid (supercritical or subcritical phases), Mass density=456.58 kg/m3, isochoric heat capacity	76.18
594.14 K, Fluid (supercritical or subcritical phases), Mass density=147.43 kg/m3, isochoric heat capacity	103.92
594.14 K, Liquid, Isochoric heat capacity	103.92
594.15 K, Fluid (supercritical or subcritical phases), Mass density=147.43 kg/m3, isochoric heat capacity	93.04
594.23 K, Fluid (supercritical or subcritical phases), Mass density=147.43 kg/m3, isochoric heat capacity	91.23
594.32 K, Fluid (supercritical or subcritical phases), Mass density=147.43 kg/m3, isochoric heat capacity	82.61
594.49 K, Fluid (supercritical or subcritical phases), Mass density=147.43 kg/m3, isochoric heat capacity	80.43
594.58 K, Fluid (supercritical or subcritical phases), Mass density=120.03 kg/m3, isochoric heat capacity	43.51
594.58 K, Fluid (supercritical or subcritical phases), Mass density=147.43 kg/m3, isochoric heat capacity	67.31
594.66 K, Fluid (supercritical or subcritical phases), Mass density=120.03 kg/m3, isochoric heat capacity	46.88
594.66 K, Fluid (supercritical or subcritical phases), Mass density=147.43 kg/m3, isochoric heat capacity	62.24
594.75 K, Fluid (supercritical or subcritical phases), Mass density=120.03 kg/m3, isochoric heat capacity	46.35
594.75 K, Fluid (supercritical or subcritical phases), Mass density=147.43 kg/m3, isochoric heat capacity	60.82
594.78 K, Fluid (supercritical or subcritical phases), Mass density=120.03 kg/m3, isochoric heat capacity	43.67
594.84 K, Fluid (supercritical or subcritical phases), Mass density=147.43 kg/m3, isochoric heat capacity	66.35
594.92 K, Fluid (supercritical or subcritical phases), Mass density=147.43 kg/m3, isochoric heat capacity	53.4
595.01 K, Fluid (supercritical or subcritical phases), Mass density=120.03 kg/m3, isochoric heat capacity	47.77
595.09 K, Fluid (supercritical or subcritical phases), Mass density=147.43 kg/m3, isochoric heat capacity	56.72
595.1 K, Fluid (supercritical or subcritical phases), Mass density=456.58 kg/m3, isochoric heat capacity	70.87
595.16 K, Fluid (supercritical or subcritical phases), Mass density=376.89 kg/m3, isochoric heat capacity	99.09
595.16 K, Liquid, Isochoric heat capacity	99.09
595.18 K, Fluid (supercritical or subcritical phases), Mass density=147.43 kg/m3, isochoric heat capacity	52.64
595.18 K, Fluid (supercritical or subcritical phases), Mass density=376.89 kg/m3, isochoric heat capacity	96.84
595.18 K, Fluid (supercritical or subcritical phases), Mass density=456.58 kg/m3, isochoric heat capacity	70.11
595.27 K, Fluid (supercritical or subcritical phases), Mass density=376.89 kg/m3, isochoric heat capacity	95.54
595.35 K, Fluid (supercritical or subcritical phases), Mass density=456.58 kg/m3, isochoric heat capacity	71.12
595.44 K, Fluid (supercritical or subcritical phases), Mass density=147.43 kg/m3, isochoric heat capacity	50.03
595.44 K, Fluid (supercritical or subcritical phases), Mass density=376.89 kg/m3, isochoric heat capacity	96.07
595.44 K, Fluid (supercritical or subcritical phases), Mass density=456.58 kg/m3, isochoric heat capacity	68.76
595.53 K, Fluid (supercritical or subcritical phases), Mass density=376.89 kg/m3, isochoric heat capacity	92.7
595.53 K, Fluid (supercritical or subcritical phases), Mass density=456.58 kg/m3, isochoric heat capacity	71.34
595.61 K, Fluid (supercritical or subcritical phases), Mass density=376.89 kg/m3, isochoric heat capacity	94.85
595.61 K, Fluid (supercritical or subcritical phases), Mass density=456.58 kg/m3, isochoric heat capacity	68.53
595.7 K, Fluid (supercritical or subcritical phases), Mass density=147.43 kg/m3, isochoric heat capacity	52.76
595.7 K, Fluid (supercritical or subcritical phases), Mass density=456.58 kg/m3, isochoric heat capacity	70.96
595.78 K, Fluid (supercritical or subcritical phases), Mass density=376.89 kg/m3, isochoric heat capacity	89.45
595.87 K, Fluid (supercritical or subcritical phases), Mass density=376.89 kg/m3, isochoric heat capacity	91.17
595.96 K, Fluid (supercritical or subcritical phases), Mass density=376.89 kg/m3, isochoric heat capacity	88.44
597.16 K, Fluid (supercritical or subcritical phases), Mass density=376.89 kg/m3, isochoric heat capacity	87.9
597.35 K, Fluid (supercritical or subcritical phases), Mass density=160.07 kg/m3, isochoric heat capacity	101.99
597.36 K, Liquid, Isochoric heat capacity	101.99
597.38 K, Fluid (supercritical or subcritical phases), Mass density=160.07 kg/m3, isochoric heat capacity	81.69
597.43 K, Fluid (supercritical or subcritical phases), Mass density=160.07 kg/m3, isochoric heat capacity	69.47
597.5 K, Fluid (supercritical or subcritical phases), Mass density=376.89 kg/m3, isochoric heat capacity	85.95
597.53 K, Fluid (supercritical or subcritical phases), Mass density=160.07 kg/m3, isochoric heat capacity	62.62
597.56 K, Fluid (supercritical or subcritical phases), Mass density=342.18 kg/m3, isochoric heat capacity	110.99
597.56 K, Liquid, Isochoric heat capacity	110.99
